Data reported in patent US8283106B2, “Sulfonic acid salt and derivative thereof, photoacid generator agent, and resist material and pattern formation method using the photoacid generator agent” (Central Glass Company, Limited, priority 2007, dated 2012).
Where two headings read alike, the source gives them in different places.

Legend:
[1] = Resist compatibility of acid generator with base resin in resist composition; format: physicochemical; conditions: for Compatibility: acid generator (1.0), PGMEA (400)
Method: Resist compositions were prepared using the above sulfonic acid onium salts PAG 1 and PAG 2 as acid generators and the following polymers (Resin 1 to 5) as base resins. Resist solutions were obtained by filtering the resist compositions with […] membrane filters, respectively.
Each of the obtained resist solutions was spin-coated on a silicon wafer to form a resist film of 250 nm thickness. The resist film was prebaked at 110° C., exposed to a 248-nm ultraviolet ray through a photomask, and then, subjected to post exposure baking treatment at 120° C. After that, the resist film was developed with a […] aqueous tetramethylammonium hydroxide solution for 1 minute at 23° C.
For comparison purposes, the above sulfonic acid onium salts PAG 3, PAG 4 and PAG 7 were tested for the resist compatibility and resist resolution under the same conditions as to the above working examples.

[2] = Resist solvent solubility; format: physicochemical
Method: Using propylene glycol monomethyl ether acetate (PGMEA) as a resist solvent, the solubility of PAG 1 to PAG 6 in the resist solvent was measured.

Row | Compound | Compatibility ([1]; Resin 1 (40 pts. wt.)) | Compatibility ([1]; Resin 2 (40 pts. wt.)) | Compatibility ([1]; Resin 3 (40 pts. wt.)) | Compatibility ([1]; Resin 4 (40 pts. wt.)) | Compatibility ([1]; Resin 5 (40 pts. wt.)) | resist compatibility compared with the conventional salts ([1]; summary of TABLES 2 and 3) | resist solvent solubility relative to urethane bond-free sulfonic acid onium salts (PAG 3 to PAG 6) ([2]; PGMEA) | Solubility ([2]; resist solvent propylene glycol monomethyl ether acetate (PGMEA)) | Solubility [2]
1 | O=C(NC12CC3CC(CC(C3)C1)C2)OCC(F)(F)S(=O)(=O)O [PAG 2, triphenylsulfonium adamantane-1-yl-carbamic acid-2,2-difluoroethylsulfonate] | Good | Good | Good | Good | Good | higher resist compatibility | twice or more higher | 0.7 parts by weight of PAG dissolved in 100 parts by weigh of PGMEA | 
2 | O=C(OCC12CC3CC(CC(C3)C1)C2)C(F)(F)S(=O)(=O)O [PAG 4, triphenylsulfonium (adamantane-1-yl-methyl)oxycarbonyldifluoromethanesulfonate] | Good | Good | Good | Good | Good |  |  |  | 0.3 parts by weight of PAG dissolved in 100 parts by weigh of PGMEA
3 | O=C(OCC(F)(F)S(=O)(=O)O)C12CC3CC(CC(C3)C1)C2 [PAG 6, triphenylsulfonium 2-(1′-adamantane)carbonyloxy-1,1-difluoroethanesulfonate] |  |  |  |  |  |  |  |  | 0.2 parts by weight of PAG dissolved in 100 parts by weigh of PGMEA
4 | triphenylsulfonium cyclohexyloxycarbonyldifluoromethanesulfonate [PAG 3] | Slightly poor | Slightly poor | Slightly poor | Slightly poor | Slightly poor |  |  |  | 0.4 parts by weight of PAG dissolved in 100 parts by weigh of PGMEA
